Experiments:
Plasmodium falciparum [1] = test: Antiplasmodial activity against Plasmodium falciparum D6; type: functional, organism-based
Plasmodium falciparum [2] = test: Antiplasmodial activity against Plasmodium falciparum W2; type: functional, organism-based

IC50 (Plasmodium falciparum [1]) | IC50 (Plasmodium falciparum [2]) | Compound
4.44 µM | 2.74 µM | CC[C@H](/C=C/[C@@H](C)[C@H]1CC[C@H]2[C@@H]3CC=C4C[C@@H](O[C@@H]5OC[C@@H](O)[C@H](O)[C@H]5O[C@@H]5O[C@H](CO)[C@@H](O)[C@H](O)[C@H]5O)CC[C@]4(C)[C@H]3CC[C@]12C)C(C)C
17.3 µM | 22.8 µM | C=C1C(CCO)=CC(=O)[C@H]2[C@H]1CC[C@H]1C(C)(C)CCC[C@]21C
34.4 µM | 30.7 µM | CC(=O)O[C@@]1(C)CCC[C@]2(C)[C@H]3Cc4occc4[C@H](C)[C@@H]3CC[C@@]12O
18.7 µM | 24.4 µM | COC(=O)[C@]12CCC(C)(C)C[C@H]1C1=CC[C@@H]3[C@@]4(C)CC[C@H](OC(C)=O)C(C)(C)[C@@H]4CC[C@@]3(C)[C@]1(C)CC2
25.7 µM | 30.3 µM | CC(=O)O[C@@]1(C)CCC[C@@]2(C)[C@H]1CC[C@H]1[C@@H](C)c3ccoc3C[C@@H]12
11.6 µM | 16.5 µM | C=C1C(CCOC(=O)/C=C/c2ccc(O)c(O)c2)=CC(=O)[C@H]2[C@H]1CC[C@H]1C(C)(C)CCC[C@]21C
> 50 µM | > 50 µM | C[C@H]1c2ccoc2C[C@H]2[C@H]1CC[C@@]1(O)C(C)(C)CCC[C@]21C [VOUCAPAN-5 ALPHA-OL]
18.7 µM | 15.6 µM | C[C@H]1C(CCO)=CC(=O)[C@H]2[C@H]1CC[C@H]1C(C)(C)CCC[C@]21C
23.8 µM | 26.2 µM | CC1(C)CC[C@]2(C(=O)O)CC[C@]3(C)C(=CC[C@@H]4[C@@]5(C)CC[C@H](O)C(C)(C)[C@@H]5CC[C@]43C)[C@@H]2C1 [OLEANOLIC_ACID]

Compound | IC50 (Plasmodium falciparum [1]) | IC50 (Plasmodium falciparum [2])
CC[C@H](/C=C/[C@@H](C)[C@H]1CC[C@H]2[C@@H]3CC=C4C[C@@H](O)CC[C@]4(C)[C@H]3CC[C@]12C)C(C)C [STIGMASTEROL] | > 50 µM | > 50 µM
CC[C@H](CC[C@@H](C)[C@H]1CC[C@H]2[C@@H]3CC=C4C[C@@H](O)CC[C@]4(C)[C@H]3CC[C@]12C)C(C)C [BETA-SITOSTEROL] | > 50 µM | > 50 µM

Reference: ChEMBL document CHEMBL2380308, “Voulkensin C-E, new 11-oxocassane-type diterpenoids and a steroid glycoside from Caesalpinia volkensii stem bark and their antiplasmodial activities” (Bioorg Med Chem Lett, 2013)
